Laboratory results from patent US8426429B2, “2-amino-quinazoline derivatives useful as inhibitors of β-secretase (BACE)” (Jansssen Pharmaceutica N.V., priority 2004, dated 2013).

Biological target: T1, β-secretase (BACE) (Homo sapiens, UniProt P56817)
T1 construct: purchased Panvera
Test: BACE FS1 % Inhibition Assay
Assay type: biochemical
Summary of the method: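 Percent inhibition per compound concentration was referenced to vehicle-treated enzyme and no-enzyme wells. Enzyme at a 4 μg/mL working stock plus compound was mixed for 20 min at room temperature before the FS1 substrate (300 μg/mL working stock) was added for a 1 h room-temperature reaction.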

T1 sequence (P56817 46-501): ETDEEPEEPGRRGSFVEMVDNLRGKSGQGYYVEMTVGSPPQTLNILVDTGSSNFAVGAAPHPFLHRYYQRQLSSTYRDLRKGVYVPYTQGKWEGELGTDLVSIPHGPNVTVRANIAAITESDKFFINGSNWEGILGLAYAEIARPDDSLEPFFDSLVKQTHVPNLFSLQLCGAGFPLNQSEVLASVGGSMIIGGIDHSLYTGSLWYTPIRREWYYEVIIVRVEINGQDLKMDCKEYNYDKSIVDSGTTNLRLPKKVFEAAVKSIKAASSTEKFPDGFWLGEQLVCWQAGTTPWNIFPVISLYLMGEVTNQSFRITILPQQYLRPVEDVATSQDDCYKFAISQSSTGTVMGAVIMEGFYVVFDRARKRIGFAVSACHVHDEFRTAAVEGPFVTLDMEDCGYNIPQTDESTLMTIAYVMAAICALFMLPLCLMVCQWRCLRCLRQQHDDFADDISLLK

Row | Compound | % Inhibition (FS) (0.3 μM test compound) | % Inhibition (FS) (1 μM test compound) | % Inhibition (FS) (3 μM test compound) | other results
1 | CN(C)Cc1ccccc1-c1ccc2c(c1)CN(Cc1cccc(C(=O)N(C)C3CCCCC3)c1)C(N)=N2 [Compound 172] | <30% | <30% | <30% | –
2 | Cc1cccc(C)c1Oc1ccc2c(c1)CN(Cc1cccc(C(=O)N(C)C3CCCCC3)c1)C(N)=N2 [Compound 475] | <30% | <30% | <30% | –
3 | CC(C)C(CC(=O)NC1CCCCC1)N1Cc2cc(Oc3ccccc3)ccc2N=C1N (stereo not drawn) [Compound 401] | <30% | <30% | 52% | –
4 | NC1=Nc2ccc(-c3ccccc3)cc2CN1CCNC(=O)CCC(F)(F)F [Compound 684] | – | – | – | % Inhibition (FS) (0.3 μM compound, FS1 substrate): 33%; % Inhibition (FS) (1 μM compound, FS1 substrate): 38%; % Inhibition (FS) (3 μM compound, FS1 substrate): 78%
5 | CCCC(=O)NCCN1Cc2cc(-c3ccccc3Cl)ccc2N=C1N [Compound 652] | 31% | 63% | 91% | –
6 | NC1=Nc2ccc(Oc3ccccc3)cc2CN1C1c2ccccc2-c2cccc(C(=O)N(C3CCCCC3)C3CCCCC3)c21 (stereo not drawn) [Compound 124] | – | – | 56% | % Inhibition (FS) (10 μM test compound): 67%
7 | Cc1ccc(C(CCC(=O)N(C)C2CCCCC2)N2Cc3cc(Oc4ccccc4)ccc3N=C2N)cc1 (stereo not drawn) [Compound 421] | <30% | 71% | 111% | –
8 | CN(C)c1cccc(Oc2ccc3c(c2)CN(Cc2cccc(C(=O)N(C)C4CCCCC4)c2)C(N)=N3)c1 [Compound 479] | <30% | <30% | 81% | –
9 | CC(=O)Nc1cccc(Oc2ccc3c(c2)CN(Cc2cccc(C(=O)N(C)C4CCCCC4)c2)C(N)=N3)c1 [Compound 229] | <30% | 35% | <30% | –
10 | NC1=Nc2ccc(-c3ccccc3F)cc2CN1CCNC(=O)C12CC3CC(CC(C3)C1)C2 [Compound 644] | 46% | 72% | 104% | –
11 | CCCc1cccc(C)c1Oc1ccc2c(c1)CN(Cc1cccc(C(=O)N(C)C3CCCCC3)c1)C(N)=N2 [Compound 482] | <30% | <30% | 43% | –
12 | CC(=O)N1CCC(C(=O)NCCN2Cc3cc(-c4ccccc4C)ccc3N=C2N)CC1 [Compound 695] | – | – | – | % Inhibition (FS) (0.3 μM compound, FS1 substrate): <30%; % Inhibition (FS) (1 μM compound, FS1 substrate): <30%; % Inhibition (FS) (3 μM compound, FS1 substrate): 54%
13 | NC1=Nc2ccc(-c3ccccc3F)cc2CN1CCNC(=O)C1CCC(C(F)(F)F)CC1 (stereo not drawn) [Compound 688] | – | – | – | % Inhibition (FS) (0.3 μM compound, FS1 substrate): <30%; % Inhibition (FS) (1 μM compound, FS1 substrate): 36%; % Inhibition (FS) (3 μM compound, FS1 substrate): 81%
14 | NC1=Nc2ccc(Oc3ccccc3)cc2CN1CCCCNC(=O)C1CCCCC1 [Compound 115] | – | – | 40% | % Inhibition (FS) (10 μM test compound): 105%
15 | CCCC=Cc1ccc2c(c1)CN(CCNC(=O)c1cc(C)oc1C)C(N)=N2 [Compound 587] | <30% | <30% | <30% | –
16 | CC(C)(C)C(=O)NCCN1Cc2cc(-c3cnc4ccccc4c3)ccc2N=C1N [Compound 674] | – | – | – | % Inhibition (FS) (0.3 μM compound, FS1 substrate): 36%; % Inhibition (FS) (1 μM compound, FS1 substrate): <30%; % Inhibition (FS) (3 μM compound, FS1 substrate): 41%
17 | CN(C(=O)c1cccc(CN2Cc3cc(Nc4ccc(C5CCCCC5)cc4)ccc3N=C2N)c1)C1CCCCC1 [Compound 437] | <30% | <30% | 38% | –
18 | CCC(c1cccc(C(=O)N(C)C2CCCCC2)c1)N1Cc2cc(-c3ccccc3OC)ccc2N=C1N (stereo not drawn) [Compound 395] | 69% | 107% | 118% | –
19 | CC(CC(=O)NCCN1Cc2cc(-c3ccccc3Cl)ccc2N=C1N)C(F)(F)F (stereo not drawn) [Compound 683] | – | – | – | % Inhibition (FS) (0.3 μM compound, FS1 substrate): 64%; % Inhibition (FS) (1 μM compound, FS1 substrate): 86%
20 | CN(C(=O)CCC(C1CCCCC1)N1Cc2cc(Oc3ccccc3)ccc2N=C1N)C1(C(=O)O)CCCCC1 (stereo not drawn) [Compound 741] | – | – | – | % Inhibition (FS) (0.3 μM compound, FS1 substrate): −48%; % Inhibition (FS) (1 μM compound, FS1 substrate): −38%; % Inhibition (FS) (3 μM compound, FS1 substrate): −25%
21 | CCC(c1cccc(C(=O)N(C2CCCCC2)C2CCCCC2)c1)N1Cc2cc(Oc3ccccc3)ccc2N=C1N (stereo not drawn) [Compound 419] | 38% | 64% | 109% | –
22 | CC(=O)N1CCC(C(=O)NCCN2Cc3cc(-c4ccccc4Cl)ccc3N=C2N)CC1 [Compound 691] | – | – | – | % Inhibition (FS) (0.3 μM compound, FS1 substrate): <30%; % Inhibition (FS) (1 μM compound, FS1 substrate): <30%; % Inhibition (FS) (3 μM compound, FS1 substrate): 51%
23 | CC(C)[C@@H](CNC(=O)C12CC3CC(CC(C3)C1)C2)N1Cc2cc(Oc3ccccc3)ccc2N=C1N [Compound 553] | <30% | <30% | 49% | –
24 | CN(C(=O)CCC(C1CCCCC1)N1Cc2cc(Oc3ccccc3)ccc2N=C1N)C1CCC(c2nn[nH]n2)CC1 (stereo not drawn) [Compound 770] | – | – | – | % Inhibition (FS) (0.3 μM compound, FS1 substrate): <30%; % Inhibition (FS) (1 μM compound, FS1 substrate): <30%; % Inhibition (FS) (3 μM compound, FS1 substrate): <30%
25 | CC1CCC(N(C(=O)c2cccc(CN3Cc4cc(Oc5ccccc5)ccc4N=C3N)c2)C2CCC(C)CC2)CC1 (stereo not drawn) [Compound 187] | <30% | <30% | 39% | –

Row | Compound | % Inhibition (FS) (0.3 μM test compound) | % Inhibition (FS) (1 μM test compound) | % Inhibition (FS) (3 μM test compound) | other results
26 | NC1=Nc2ccc(Oc3ccccc3)cc2CN1CCNC(=O)C1CC1c1ccccc1 (stereo not drawn) [Compound 139] | – | – | <30% | % Inhibition (FS) (10 μM test compound): 61%
27 | NC1=Nc2ccc(-c3cnc4ccccc4c3)cc2CN1CCNC(=O)C1CCC1 [Compound 670] | – | – | – | % Inhibition (FS) (0.3 μM compound, FS1 substrate): <30%; % Inhibition (FS) (1 μM compound, FS1 substrate): <30%; % Inhibition (FS) (3 μM compound, FS1 substrate): 44%
28 | CCCC(CCC)C(=O)N1CCCCC(N2Cc3cc(Oc4ccccc4)ccc3N=C2N)C1 (stereo not drawn) [Compound 552] | <30% | <30% | 36% | –
29 | CN(C(=O)CCC(C1CCOCC1)N1Cc2cc(Oc3ccccc3)ccc2N=C1N)C1CCC(C(=O)O)CC1 (stereo not drawn) [Compound 743] | – | – | – | % Inhibition (FS) (3 μM compound, FS1 substrate): 130%
30 | CC(C)Oc1ccccc1Oc1ccc2c(c1)CN(Cc1cccc(C(=O)N(C)C3CCCCC3)c1)C(N)=N2 [Compound 478] | <30% | <30% | 46% | –
31 | CN(C(=O)c1cccc(CN2Cc3cc(Oc4ccccc4-c4ccccc4)ccc3N=C2N)c1)C1CCCCC1 [Compound 234] | <30% | 57% | 43% | –
32 | CCCC=Cc1ccc2c(c1)CN(CCNC(=O)C1CCCCC1)C(N)=N2 [Compound 577] | <30% | <30% | <30% | –
33 | CN(C(=O)c1cccc(C(CC2CCCCC2)N2Cc3cc(Oc4ccccc4)ccc3N=C2N)c1)C1CCCCC1 (stereo not drawn) [Compound 310] | <30% | <30% | 57% | –
34 | CN(CCc1ccccc1)C(=O)CC[C@@H](C1CCCCC1)N1Cc2cc(-c3ccccc3F)ccc2N=C1N [Compound 727] | – | – | – | % Inhibition (FS) (0.3 μM compound, FS1 substrate): 46%; % Inhibition (FS) (1 μM compound, FS1 substrate): 80%
35 | CC(C)CC(=O)NCCN1Cc2cc(Oc3ccccc3)ccc2N=C1N [Compound 190] | 51% | 86% | 101% | –
36 | CCCCC(CC)CN(CC(CC)CCCC)C(=O)c1cccc(CN2Cc3cc(Oc4ccccc4)ccc3N=C2N)c1 (stereo not drawn) [Compound 198] | <30% | <30% | <30% | –
37 | CCCC(=O)NCCN1Cc2cc(-c3ccncc3)ccc2N=C1N [Compound 570] | <30% | <30% | <30% | –
38 | Cc1cc(C(=O)NCCN2Cc3cc(-c4cccc(C(F)(F)F)c4)ccc3N=C2N)c(C)o1 [Compound 590] | <30% | <30% | <30% | –
39 | CN(CC(=O)O)C(=O)CCC(C1CCCCC1)N1Cc2cc(Oc3ccccc3)ccc2N=C1N (stereo not drawn) [Compound 767] | – | – | – | % Inhibition (FS) (0.3 μM compound, FS1 substrate): <30%; % Inhibition (FS) (1 μM compound, FS1 substrate): 71%
40 | COc1ccccc1-c1ccc2c(c1)CN([C@@H](CCC(=O)N(C)Cc1cc(C)no1)C1CCCCC1)C(N)=N2 [Compound 718] | – | – | – | % Inhibition (FS) (0.3 μM compound, FS1 substrate): <30%; % Inhibition (FS) (1 μM compound, FS1 substrate): 30%
41 | CC1CCC(NC(=O)c2cccc(CN3Cc4cc(Oc5ccccc5)ccc4N=C3N)c2)CC1 (stereo not drawn) [Compound 213] | <30% | <30% | <30% | –
42 | C=CCc1cccc(C)c1Oc1ccc2c(c1)CN(Cc1cccc(C(=O)N(C)C3CCCCC3)c1)C(N)=N2 [Compound 480] | <30% | <30% | 38% | –
43 | NC1=Nc2ccc(Oc3ccccc3)cc2CN1CCNC(=O)C(c1ccccc1)c1ccccc1 [Compound 207] | 48% | 90% | 108% | –
44 | CCCCC(CC)C(=O)NCCN1Cc2cc(-c3ccccc3C)ccc2N=C1N (stereo not drawn) [Compound 662] | – | – | – | % Inhibition (FS) (0.3 μM compound, FS1 substrate): 66%; % Inhibition (FS) (1 μM compound, FS1 substrate): 97%
45 | CC(=O)Nc1ccc(Sc2ccc3c(c2)CN(Cc2cccc(C(=O)N(C)C4CCCCC4)c2)C(N)=N3)cc1 [Compound 417] | <30% | <30% | 78% | –
46 | NC1=Nc2ccc(-c3ccc4ccccc4c3)cc2CN1CCNC(=O)C1CCCC1 [Compound 664] | – | – | – | % Inhibition (FS) (0.3 μM compound, FS1 substrate): <30%; % Inhibition (FS) (1 μM compound, FS1 substrate): <30%; % Inhibition (FS) (3 μM compound, FS1 substrate): <30%
47 | COc1ccccc1-c1ccc2c(c1)CN(CCNC(=O)CN)C(N)=N2 [Compound 490] | <30% | <30% | <30% | –
48 | NC1=Nc2ccc(Oc3ccccc3)cc2CN1CCCCNC(=O)C1CCCC1 [Compound 116] | – | – | 39% | % Inhibition (FS) (10 μM test compound): 81%
49 | CN(C(=O)c1ccc2c(c1)C(N1Cc3cc(Oc4ccccc4)ccc3N=C1N)c1ccccc1-2)C1CCCCC1 (stereo not drawn) [Compound 118] | – | – | – | % Inhibition (FS) (3 μM test compound, 3 µM): 48%; % Inhibition (FS) (10 μM test compound, 10 µM): 91%
